What all share (assay type): biochemical
One experiment addresses T1, JosD2 (Homo sapiens, UniProt Q8TAC2).
T1 sequence (Q8TAC2 1-188): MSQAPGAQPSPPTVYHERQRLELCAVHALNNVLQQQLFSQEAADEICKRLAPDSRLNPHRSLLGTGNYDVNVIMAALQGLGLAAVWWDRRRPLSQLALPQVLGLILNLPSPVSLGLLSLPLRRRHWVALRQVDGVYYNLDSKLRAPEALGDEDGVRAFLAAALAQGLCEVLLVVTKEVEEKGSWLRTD
Put plainly: Platform comparison of DUB substrates, signal to background. Particulars: DUB 10 nM; signal at 30 minutes; Ub-LUC 100 nM, DUB-Glo substrate 20 μM, Ub-AMC/Ub-rho 250 nM. How it is done:
(§1) For Ub-AMC and Ub-Rhodamine110, all enzymes were diluted into 50 mM Tris, pH 8.0, 5 mM DTT, 0.05% CHAPS to a final concentration of 10 nM. […] Either Ub-AMC or Ub-Rhodamine110 (final reaction concentration equal to 250 nM) were diluted into 50 mM Tris, pH 8.0, 5 mM DTT, 0.05% (w/v) CHAPS. […] For Ub-Rhodamine110, fluorescence was monitored with filters corresponding to excitation at 485 nm and emission at 531 nm.

In a further experiment the target is T2, Otub2 (Homo sapiens, UniProt Q96DC9).
T2 sequence (Q96DC9 1-234): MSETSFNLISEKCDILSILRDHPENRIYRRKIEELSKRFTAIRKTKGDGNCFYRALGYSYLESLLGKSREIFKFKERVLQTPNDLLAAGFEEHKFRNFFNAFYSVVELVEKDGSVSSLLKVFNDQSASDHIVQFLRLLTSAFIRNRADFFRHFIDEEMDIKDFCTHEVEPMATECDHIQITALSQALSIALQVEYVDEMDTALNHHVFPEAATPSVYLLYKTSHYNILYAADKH
The description is as above. Particulars: DUB 10 nM; signal at 30 minutes; Ub-LUC 100 nM, DUB-Glo substrate 20 μM, Ub-AMC/Ub-rho 250 nM. How it is done: as §1

The next experiment concerns the target T3, AMSH (Homo sapiens, UniProt O95630).
T3 sequence (O95630 1-424): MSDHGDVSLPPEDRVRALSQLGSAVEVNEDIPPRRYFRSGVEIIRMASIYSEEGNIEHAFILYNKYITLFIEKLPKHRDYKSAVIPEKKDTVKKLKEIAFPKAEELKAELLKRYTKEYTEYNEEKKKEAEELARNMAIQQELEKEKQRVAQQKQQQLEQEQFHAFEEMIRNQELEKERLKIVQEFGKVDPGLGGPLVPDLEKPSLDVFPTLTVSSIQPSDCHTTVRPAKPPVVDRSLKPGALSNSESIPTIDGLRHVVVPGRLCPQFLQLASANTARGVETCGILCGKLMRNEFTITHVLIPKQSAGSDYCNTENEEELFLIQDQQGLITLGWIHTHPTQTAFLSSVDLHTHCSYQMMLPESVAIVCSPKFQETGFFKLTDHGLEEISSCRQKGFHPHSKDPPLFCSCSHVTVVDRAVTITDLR
The experiment is described as above. Particulars: DUB 10 nM; signal at 30 minutes; Ub-LUC 100 nM, DUB-Glo substrate 20 μM, Ub-AMC/Ub-rho 250 nM. How it is done: as §1

For the next experiment, the target named is JosD1 (Homo sapiens, UniProt Q15040). The description is as above. Particulars: DUB 10 nM; signal at 30 minutes; Ub-LUC 100 nM, DUB-Glo substrate 20 μM, Ub-AMC/Ub-rho 250 nM. How it is done:
as §1

In the next experiment the target is USP20 (Homo sapiens, UniProt Q9Y2K6). Described as above. Particulars: DUB 10 nM; signal at 30 minutes; Ub-LUC 100 nM, DUB-Glo substrate 20 μM, Ub-AMC/Ub-rho 250 nM. On the procedure:
as §1

The next experiment addresses T4, UCHL3 (Homo sapiens, UniProt P15374).
T4 sequence (P15374 1-230): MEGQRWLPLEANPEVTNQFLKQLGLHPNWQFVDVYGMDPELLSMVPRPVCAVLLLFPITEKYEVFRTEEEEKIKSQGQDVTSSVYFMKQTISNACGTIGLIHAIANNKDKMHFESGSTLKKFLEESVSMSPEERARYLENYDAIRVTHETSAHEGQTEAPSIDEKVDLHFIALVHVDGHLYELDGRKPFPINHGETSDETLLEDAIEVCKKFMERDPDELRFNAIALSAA
Kind of experiment: Isopeptidase cleavage of substrates (DUB-Glo luminescence / fluorescence), S/B. Particulars: for signal to background (S/B) ratio: 30 minutes. On the procedure:
The Ub-amino-luciferin substrate was compared to the Z-Arg-Leu-Arg-Gly-Gly (SEQ ID NO: 1)-amino-luciferin substrate (Promega DUB-Glo™ substrate) to determine the limit of detection of the activities of four different isopeptidases (UCHL3, USP2core, USP7, and USP8). For all enzymes, these two substrates were tested in parallel using the DUB-Glo™ assay system (Promega) according to the manufacturer's instructions. All enzymes were diluted into 50 mM HEPES, pH 7.5, 10 mM DTT, 0.1% Prionex (Sigma-Aldrich). For testing Z-Arg-Leu-Arg-Gly-Gly (SEQ ID NO: 1)-amino-luciferin, final isopeptidase concentrations were as follows: UCHL3 equal to approximately 0.35 to 50 nM; USP2core equal to approximately 10 to 500 nM, USP7 equal to approximately 0.1 to 50 nM, and USP8 equal to approximately 20 to 500 nM. For testing Ub-amino-luciferin, final isopeptidase concentrations were as follows: UCHL3 equal to approximately 0.05 to 50 pM; USP2core, USP7, and USP8 equal to approximately 0.5 to 500 pM. Reactions were assembled through addition of 50 μl of diluted enzyme and 50 μl of DUB-Glo™ reaction mixture supplemented with either Z-Arg-Leu-Arg-Gly-Gly (SEQ ID NO: 1)-amino-luciferin (final concentration of 20 μM) or Ub-amino-luciferin (final concentration of 100 nM). The signal in relative luminescence units (RLUs) was measured at 30 minutes from reaction assembly on an Envision multi-label plate reader (Perkin Elmer). The signal to background ratio (S/B) was calculated as (maximum signal−signal in absence of enzyme)/(signal in absence of enzyme).
The Ub-amino-luciferin (Ub-LUC) substrate was compared to the Ub-AMC substrate (FIG. 3) and the Ub-Rhodamine110 (Ub-Rho) substrate (FIG. 4), to determine the limit of detection for the activities of four different isopeptidases (UCHL3, USP2core, USP7, and USP8). All enzymes were diluted into 50 mM Tris, pH 8.0, 5 mM DTT, 0.05% (w/v) CHAPS. Final isopeptidase concentrations were as follows: UCHL3 equal to approximately 2 pM to 40 pM; USP2core, USP7, and USP8 were equal to approximately 10 to 1000 nM. Either Ub-AMC or Ub-Rhodamine110 (final concentration equal to 250 nM) were diluted into 50 mM Tris, pH 8.0, 5 mM DTT, 0.05% (w/v) CHAPS. Reactions were assembled through the addition of 50 μl diluted isopeptidase to 50 μl of either Ub-AMC or Ub-Rhodamine110, and the signal in relative fluorescence units (RFUs) was measured at 30 minutes on an Envision multi-label plate reader (Perkin Elmer). For Ub-AMC, fluorescence was monitored with filters corresponding to excitation at 340 nm and emission at 460 nm. For Ub-Rhodamine110, fluorescence was monitored with filters corresponding to excitation at 485 nm and emission at 531 nm. The signal to background (S/B) was calculated as (maximum signal−signal in absence of enzyme)/(signal in absence of enzyme).

Sequence of USP20 (Q9Y2K6 whole entry, species assumed): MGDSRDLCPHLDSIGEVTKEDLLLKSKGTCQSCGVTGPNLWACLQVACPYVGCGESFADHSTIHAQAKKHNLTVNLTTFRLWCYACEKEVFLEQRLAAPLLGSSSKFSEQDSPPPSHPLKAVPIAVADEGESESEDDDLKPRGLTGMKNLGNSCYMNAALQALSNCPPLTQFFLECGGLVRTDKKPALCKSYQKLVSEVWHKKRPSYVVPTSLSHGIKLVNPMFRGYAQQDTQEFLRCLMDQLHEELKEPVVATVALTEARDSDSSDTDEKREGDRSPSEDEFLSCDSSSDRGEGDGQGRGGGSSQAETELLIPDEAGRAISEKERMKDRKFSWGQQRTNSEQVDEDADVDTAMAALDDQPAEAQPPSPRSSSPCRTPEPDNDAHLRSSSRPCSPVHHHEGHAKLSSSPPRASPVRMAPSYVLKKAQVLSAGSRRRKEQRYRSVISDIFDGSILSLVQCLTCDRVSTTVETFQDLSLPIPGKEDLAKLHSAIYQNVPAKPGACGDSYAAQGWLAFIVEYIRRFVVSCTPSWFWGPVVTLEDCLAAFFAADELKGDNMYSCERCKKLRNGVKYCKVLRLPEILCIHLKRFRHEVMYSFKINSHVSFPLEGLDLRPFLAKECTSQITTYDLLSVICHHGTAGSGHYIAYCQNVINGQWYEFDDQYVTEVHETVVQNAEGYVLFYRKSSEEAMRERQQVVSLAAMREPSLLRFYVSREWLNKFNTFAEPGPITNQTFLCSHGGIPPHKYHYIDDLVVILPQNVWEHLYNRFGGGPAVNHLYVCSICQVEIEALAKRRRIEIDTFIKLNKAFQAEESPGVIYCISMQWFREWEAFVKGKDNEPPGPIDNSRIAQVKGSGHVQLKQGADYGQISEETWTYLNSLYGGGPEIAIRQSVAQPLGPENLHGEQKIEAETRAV

On to Ub(1-76)-aminoluciferin [Ub-LUC], for which the “Signal to Background value” at JosD2 was found to be 760; on Otub2, 980; at AMSH, 16; at JosD1, 74; on USP20, 473. The “fold greater S/B compared to Z-RLRGG-amino-luciferin” value on UCHL3 (UCHL3 activity) was “about 1000 fold”. Further, the “limits of detection, fold lower than with Z-RLRGG-amino-luciferin” value at UCHL3 (linear range of UCHL3-dependent S/B) was “approximately 1000 fold”. The “signal to background (S/B) ratio” value on UCHL3 (substrate 100 nM, UCHL3 32 pM) is 1000.
Take “Z-Arg-Leu-Arg-Gly-Gly (SEQ ID NO: 1)-amino-luciferin [DUB-glo ™]”: the “Signal to Background value” on JosD2 amounted to 2.1; at Otub2 it was 1.3; at AMSH, 1.4; at JosD1 it was 1.3; on USP20, 2.8. In addition, the “signal to background (S/B) ratio” value on UCHL3 (substrate 20 μM, UCHL3 40 nM) is on record as “approximately 1000”.

Source of the values: patent US20120058499A1, “Bioluminescent Detection of Protease Activity” (priority 2010, published 2012).
